Experimental findings from paper PMC6240685, “Strong Inhibitory Effect, Low Cytotoxicity and High Plasma Stability of Steroidal Inhibitors of N-Methyl-D-Aspartate Receptors With C-3 Amide Structural Motif” (Frontiers in Pharmacology, 2018) are described below.

Read-outs that look alike come from different tables or passages of the source.

For data set [1], the system named is HepG2 cells. Put plainly: Mitotoxicity, XTT viability in glucose vs galactose medium. The following applies: Homo sapiens, HepG2, 24 h. As to the method: (A) Hepatotoxicity provoked by compound 4 was assessed after 72 h incubation of HepG2 cells in low glucose medium (5 mM) in the presence of compound 4 (0.25–100 μM). (B) Mitochondrial toxicity was determined after 24 h incubation of HepG2 cells in either high glucose medium (25 mM) or galactose medium (10 mM) in the presence of compound 4 (2.5–150 μM). Cell viabilities were recorded in triplicates in three independent experiments and expressed as percentage of vehicle control ± SD and IC50 values were determined by GraphPad Prism software using following equation: Y = Bottom + (Top–Bottom)/(1 + 10ˆ((LogIC50-X)^∗HillSlope)), where IC50 is the concentration of compound 4 that inhibits cell viability half way between Bottom and Top plateaus, X is compound 4 concentration and HillSlope describes the steepness of the family of curves. […] (C) Concentration-dependent effect on ROS level. HepG2 cells were treated with compound 4 (0.25–100 μM) for 72 h, and then the intracellular level of total ROS in relative fluorescence units (RFU) was detected. The data are presented as the mean ± SD for at least three independent experiments and each experiment was carried out in triplicate. Final concentration of DMSO in samples was 1%. […] Single asterisks (^∗) indicate a significant difference (P < 0.05) compared to 1% DMSO control (one-way ANOVA with Dunnett’s post-test).
HepG2 cells (ATCC®, United Kingdom) were grown in complete Minimal Essential Medium (EMEM) (5.5 mM glucose) medium, supplemented with 10% (v/v) fetal calf serum, 200 μg/mL of streptomycin, 200 U/mL of penicillin G and 4 mM glutamine. They were cultured under a humidified atmosphere containing 5% CO2 at 37°C.
The cytotoxicity of the tested compounds was assessed with use of XTT cell proliferation kit II (Roche Diagnostics GmbH, Mannheim, Germany) according to the manufacturer’s instructions. Briefly HepG2 cells were seeded in a 96-well plate at a density of 22,000 cells per well. After 24 h, the tested neurosteroids in a concentration range from 0.5 to 200 μM were added to the culture media and incubated for 72 h before the XTT dye was added. Mitochondrial toxicity was assessed in HepG2 cells using glucose and galactose conditioned media and XTT assay as a read out for cell viability. In brief, cells were seeded onto 96 well, clear bottom tissue culture plates at a density of 22,000 cells/well and left overnight to attach. Six hours prior to the neurosteroids treatment the media was replaced with 100 μL DMEM media containing either glucose (25 mM glucose; 1 mM pyruvate; 2 mM glutamine, 10% FBS) or galactose (10 mM galactose, 1 mM pyruvate, 6 mM glutamine, 10% FBS). After that, the tested neurosteroids in a concentration range from 0.5 to 200 μM were added in the fresh appropriate assay medium (glucose or galactose) and incubated for 24 h before the XTT dye was added. The XTT absorbance was recorded at 495 nm after 1 h incubation with the dye. Compounds were dissolved in DMSO to produce the stock solutions at the concentration of 10 mM, with exception of PAG, 1, 6 (5 mM), and 11 (2.5 mM). Results were expressed as percentages of change in viability compared to appropriate DMSO control. IC50 values were determined by GraphPad Prism version 5.00 for Windows (GraphPad Software, La Jolla, CA, United States). All experiments were done in triplicates in three independent experiments to check the reproducibility.

The target in data set [2] is T1, GluN1/GluN2B receptors (Rattus norvegicus, UniProt P35439+Q00960).
T1 construct: expressed in transfected cells; host or cells: HEK293
Kind of data set: Patch-clamp inhibition of glutamate responses of GluN1/GluN2B receptors in transfected HEK293 cells. In kind it is cell-based. For orientation: In patch-clamp work, channel activity is measured electrically.

Data set [3] can be described thus: Plasma stability, human plasma. In kind it is in vitro ADME. The conditions noted are these: human, plasma. As to the method: Then, 37.8 μL of stock solution was added to 1400 μL of human plasma, maintained at 37°C. Aliquots (50 μL) withdrawn at 0, 1, 4, 8, and 24 h were analyzed by HPLC. […] The supernatant was transferred to an autosampler vial and 1 μL was injected onto LC-MS system. The samples were analyzed with an Agilent 1260 HPLC (Agilent Technologies) coupled to ESI-TOF Agilent 6530 (Agilent Technologies) with Agilent Jet Stream Technology. Samples were separated on a Waters ACQUITY UPLC CSH Phenyl-Hexyl (100 × 2.1, 130 Å, 1.7 μm) at a flow rate 0.3 ml/min. […] The mass spectrometry instrument was operated in a negative ion mode with a voltage of +3.00 kV applied to the capillary. The temperature, the flow rate of the nitrogen drying gas, the pressure of the nitrogen nebulizing gas, and the flow rate of the sheath gas were set at 325°C, 10 l/min, 40 psi, 390°C, and 11 l/min, respectively. Results are represented as a percentage of a compound remaining in spiked human plasma.

T1 sequence (Q00960 27-1482, other chains not shown): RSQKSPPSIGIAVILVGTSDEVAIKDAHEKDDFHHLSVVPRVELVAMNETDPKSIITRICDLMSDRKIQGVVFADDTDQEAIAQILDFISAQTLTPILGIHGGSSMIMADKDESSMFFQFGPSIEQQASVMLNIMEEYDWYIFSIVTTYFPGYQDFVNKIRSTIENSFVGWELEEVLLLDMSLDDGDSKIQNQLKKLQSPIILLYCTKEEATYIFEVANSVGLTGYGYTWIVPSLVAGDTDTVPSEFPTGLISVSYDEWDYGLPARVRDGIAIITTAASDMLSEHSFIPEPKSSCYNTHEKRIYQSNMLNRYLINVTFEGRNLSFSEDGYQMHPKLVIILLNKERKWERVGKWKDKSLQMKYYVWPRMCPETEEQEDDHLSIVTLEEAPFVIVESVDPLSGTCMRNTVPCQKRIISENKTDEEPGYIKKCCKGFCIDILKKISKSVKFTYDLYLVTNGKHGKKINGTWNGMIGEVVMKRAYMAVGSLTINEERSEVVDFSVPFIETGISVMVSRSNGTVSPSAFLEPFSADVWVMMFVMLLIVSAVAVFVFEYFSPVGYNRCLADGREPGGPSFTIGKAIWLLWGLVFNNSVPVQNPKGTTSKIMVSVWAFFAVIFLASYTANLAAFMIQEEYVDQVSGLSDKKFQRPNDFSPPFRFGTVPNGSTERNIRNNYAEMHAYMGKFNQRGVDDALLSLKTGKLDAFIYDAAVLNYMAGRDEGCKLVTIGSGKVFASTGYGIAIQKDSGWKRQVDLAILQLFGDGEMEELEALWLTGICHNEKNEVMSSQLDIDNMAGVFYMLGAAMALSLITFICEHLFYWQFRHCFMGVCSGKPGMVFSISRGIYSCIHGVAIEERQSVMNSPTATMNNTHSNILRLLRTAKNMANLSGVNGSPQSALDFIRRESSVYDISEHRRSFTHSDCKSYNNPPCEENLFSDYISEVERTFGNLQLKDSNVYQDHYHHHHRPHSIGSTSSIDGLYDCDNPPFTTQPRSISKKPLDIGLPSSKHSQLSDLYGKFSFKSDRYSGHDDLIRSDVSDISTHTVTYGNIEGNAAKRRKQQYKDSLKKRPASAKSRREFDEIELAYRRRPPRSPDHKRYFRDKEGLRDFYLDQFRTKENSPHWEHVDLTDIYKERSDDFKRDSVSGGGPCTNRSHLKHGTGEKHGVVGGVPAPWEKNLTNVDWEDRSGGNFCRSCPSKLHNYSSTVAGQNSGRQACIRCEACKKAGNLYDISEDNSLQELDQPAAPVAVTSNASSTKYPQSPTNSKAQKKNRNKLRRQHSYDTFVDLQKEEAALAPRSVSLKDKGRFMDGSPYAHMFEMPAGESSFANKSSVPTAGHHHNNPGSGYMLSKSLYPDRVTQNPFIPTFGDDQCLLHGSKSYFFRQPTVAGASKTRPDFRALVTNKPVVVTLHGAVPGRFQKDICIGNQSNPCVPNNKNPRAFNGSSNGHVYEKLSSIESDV

Consider `C[C@@]12CCC[C@H]1[C@@H]1CC[C@@H]3C[C@H](NC(=O)[C@@H](N)CC(=O)O)CC[C@]3(C)[C@H]1CC2` [Compound 6, (S)-3-amino-4-(((3R,5R,8S,9S,10S,13S,14S)-10,13-dimethylhexadecahydro-1H-cyclopenta[a]phenanthren-3-yl)amino)-4-oxobutanoic acid], for which the IC50 (as a rule, the concentration that gives 50% inhibition) in data set [1] (read-out: Mitotoxicity IC50, 10 mM galactose) is > 200 µM; in data set [1] (read-out: Mitotoxicity IC50, 25 mM glucose), > 200 µM; in data set [2] (as repeated in Table 2, read-out: IC50), 4.8 µM; in data set [2] (concentration-response, 1 mM glutamate and 10 μM glycine, read-out: IC50 ±SD) it was 7.4 ± 0.8 µM; in data set [2] (current responses to glutamate, HEK293, IC50 from single steroid dose, Hill coefficient fixed at 1.2, read-out: IC50 ± SD), 4.8 ± 0.9 µM. The ΔGexp in data set [2] was -7.29 kcal/mol. For the same compound, the “h ± SD (apparent Hill coefficient)” value in data set [2] (1 mM glutamate and 10 μM glycine) turned out to be 1.3 ± 0.1. Besides, the share remaining – broadly, what is left of the initial amount, in per cent – at 8 h, 42.1 μg/mL in data set [3] was 100%.
